Source: US20240299334A1, “PHARMACEUTICAL COMPOSITION OF NAPHTHALENE DERIVATIVES AS MULTI-TARGETED THERAPEUTIC AGENTS FOR THE TREATMENT OF ALZHEIMER'S DISEASE” (CENTRO DE NEUROCIENCIAS DE CUBA, CNEURO, priority 2020, published 2024)

Experiments:
[1] = system: seizures induced by icv administration of kainic acid; assay: Seizures induced by icv administration of kainic acid (Racine scale); assay type: in vivo, mice; settings: compound 3 5 and 50 mg/kg oral, 1 h before KA icv; effect greater with 50 mg/kg
Experimental: Young male OF-1 mice (20-25 g), supplied by the National Center for the Laboratory Animals Production (CENPALAB, Cuba) were used. The conditions of adaptation and maintenance of the animals before carrying out the experiment were similar to those developed in non-limiting Example 2. The mice were divided into 5 experimental groups (7 animals group) distributed in: a control group (PBS 2 μL, icv), a seizure control group (KA 2 μL, icv) and three groups treated orally by gastric cannulation with compound 3 at doses of 1, 5, 50 mg/kg […] and KA 2 μL, icv. Compound 3 was prepared as a suspension in 5% carboxymethylcellulose (CMC) vehicle. […]
For the icv administration of KA the mice were anesthetized with 685.71 mg/kg with chloral hydrate i.p. and placed on a dual manipulator. […] Stereotaxic coordinates for the lateral ventricle were precisely measured as: anteroposterior […], lateral±[…] and dorsoventral […] relative to bregma and ventral dura with the tooth bar at […]. A burr hole was made in the skull by automatic microperforation attached to an arm of the stereotaxic apparatus. […]
Statistical Analysis All data are expressed as the mean±standard error of the mean (SEM), and were analyzed using a one-way analysis of variance followed by Turkey's post-hoc test. […]

[2] = system: amnesia induced by the acute administration of scopolamine; assay: Object discrimination test, intranasal administration, acute ESC; assay type: in vivo, mice; settings: nasal formulation, single intranasal dose (74 μg/kg); ESC 1.5 mg/kg ip; vs control groups
Excerpt: Male C57BL/6 mice (20-25 g), supplied by the National Center for the Laboratory Animals Production (CENPALAB, Cuba) were used. The conditions of adaptation and maintenance of the animals before carrying out the experiment were similar to those developed in non-limiting Example 4.
At the end of the adaptation period, the animals were randomly distributed according to their body weights in four experimental groups of 10 animals each: two healthy control groups, one administered with a vehicle via the nasal route (G1) and the other with saline solution via. ip (G2); a sick control group, administered with nasal saline and then, with ESC dissolved in saline solution (1.5 mg/kg, ip) (G3) and a treated group, administered with compound 3 prepared according to the formulation of non-limiting Example 10 and after 15 minutes the ESC is administered (1.5 mg/kg, ip) (G4). This experiment was carried out in two experimental series under the same conditions described in order to study the effects of the nasal formulation of compound 3 in two behavioral models: Y-maze in the hidden arm modality and the object discrimination model. […]
The Object Recognition Test (ORT) is a commonly used behavioral test for the investigation of various aspects of learning and memory, particularly recognition memory, in rodent models of CNS disorders. […] The behavior of the animal was recorded using a video camera. […]

CSC(=S)NCCNC(=O)CCC(=O)Nc1cccc2ccccc12 [compound 3, methyl(2-{[4-(1-naphthylamino)-4-oxobutanoyl]amino}ethyl)dithiocarbamate]
total seizure score (0-120 minutes) [1]: significant decrease in the total score | discrimination index (DI) of the novel object [2]: No significant differences were observed in the discrimination index
